Values joined by “and” are separate entries in the source; they are usually repeats but may differ in a detail not shown here. Equal entries are not always repeated. “Also recorded” adds a separate entry of the source.
How the values were obtained:
[1] = tested on: human neuroblastoma cells (NPG.Luc cells); experiment: NIR confocal microscopy of imaging agent uptake by neuroblastoma cells; assay type: cell-based; conditions: 50 μmolar, incubated overnight at 37° C., ex/em 765/810 nm
Procedure: Cell lines. Human neuroblastoma cancer cell lines NB1691.1uc and SYFY.luc were cultured in Dulbecco's Modified Eagle's Medium supplemented with high glucose and F12 nutrient (DMEM/F12, Invitrogen, Carlsbad, Calif.) with 10% fetal bovine serum (Hyclone, Logan, Utah) in a humidified incubator maintained at 37° C. with 5% CO2.
Confocal microscope imaging. Cells were harvested from culture and incubated overnight at 37° C. with W765-BG imaging agent or NIR dye at final concentrations of 50 μmolar. Cells were washed in PBS, then incubated for 15 min at 4° C. with Sytox green (Molecular Probes) in 95% ethanol to fix the cells and stain cell nuclei. Stained cells were then transferred to a slide and mounted for microscopic examination. Images were recorded using an Olympus confocal microscope (Model: Fluorview 1000, Olympus America, Center Valley, Pa., USA). The microscope was equipped with excitation (Ex) light source and emission (Em) filters to detect and separate W765-BG or NIR dye (ex/em 765/810 nm) and cell nuclei (ex/em 488/510 nm) signals. In the microscopic images, signal intensities were recorded from one slice of 23 cell z-stacks with 0.5 micrometers gaps. Sytox green and W765-BG or NIR dye signals were pseudo colored into green (emission at 510 nm) and red (emission at 810 nm), respectively.
Imaging of W765-BG in neuroblastoma cells. To evaluate W765-BG as a potential specific molecule, its ability to uptakes by neuroblastoma cells was examined in vitro by NIR confocal microscopy. NPG.Luc cells were treated with W765-BG or free dye overnight at 37° C., after which they were washed, fixed, and visualized by confocal microscopy.
In vitro cell uptake imaging agent. Imaging agent uptake by the cells was recorded by confocal microscopy. The images show cell morphology (FIG. 3A), cell nuclei (FIG. 3B), and W765-BG uptakes by cells (FIG. 3C). […] Those results were validated by non-overlaid NIR images (FIG. 3G and FIG. 3H).

[2] = tested on: NGP.Luc xenograft; experiment: In vivo NIR optical imaging of NGP.Luc tumor xenografts in mice
Procedure: (§1) Tumor xenografts: Four- to six-week-old female nude mice (18-22 g) (Taconic, Hudson, N.Y.) were housed and fed with sterilized pellet chow and sterilized water. Animals were maintained in a pathogen-free mouse colony. Tumor cells near confluence were harvested by incubation with 0.05% trypsin-EDTA. Cells were pelleted by centrifugation at 130×g for 5 min and resuspended in sterile phosphate-buffered saline (PBS). Approximately 1 million cells were implanted subcutaneously into the hind leg region of the mice. A total of 15 mice was used in this study.
(§2) Animal imaging. Tumors were visualized by intraperitoneal injection of 3 mg of VivoGlo Luciferin (Promega, Madison Wis.) before the imaging session, and pseudo into cyan. Ten nanomoles of W765-BG and 3 nanomoles of the vascular agent RGD-Cy5.5 were injected i.v. into the tumor-bearing mice prior to the imaging study. The animals were imaged 1 to 9 days after the injection using the Kodak In-Vivo Multispectral System FX (Carestream Health Molecular Imaging, New Haven, Conn.). Vasculature images were recorded at wavelengths of ex/em 650/700 nm for RDG-Cy5.5 and pseudo colored into red. The W765-BG signal was recorded at wavelengths of ex/em 770/830 nm and pseudo colored into green. Tumor cells, vasculature, and W765-BG signals were precisely overlaid with anatomical X-ray images.
Imaging of W765-BG in human tumor xenografts in mice. […] Tumor-bearing mice received an intraperitoneal injection of Luciferin to visualize the tumor cells, followed by an intravenous injection of W765-BG from the tail vein. Whole body images were collected at 24 h intervals over the course of eight days. Tumors were visualized by white light, X-ray and luciferase imaging (FIG. 2). […] When merging the optical signal of W765-BG with luciferase and anatomic X-ray images (FIG. 2E-2F), their precise overlay confirms the specificity of W765-BG.
In contrast, the NGP.Luc tumor was rather diffuse without a clear margin in the early tumor growth phase (FIG. 4G). The tumor vasculature developed better than in the NB1691.Luc tumor. […] The diffused tumor growth pattern also limited the W765-BG imaging findings in this stage (FIG. 4I). Once again, the merged images show the location of the tumor cells and the vasculature status (FIG. 4J to FIG. 4L). One week later, the tumor cells became more concentrated in one location (FIG. 4M). The vasculature surrounding the tumor node was well formed (FIG. 4N) and the TBR of the vasculature agent increased to 1.90. […] The two imaging agents were distributed differently in the body (FIG. 4P). […] Merged X-ray and W765-BG images confirmed the tumor size, location and W765-BG signal intensity (FIG. 4Q).

[3] = tested on: NB1691.Luc xenograft; experiment: In vivo NIR optical imaging of NB1691.Luc tumor xenografts in mice; conditions: 7 days post inoculation, 10 nmol W765-BG, 3 nmol RGD-Cy5.5 i.v.
Procedure: as §1
as §2, with “The animals were imaged 1 to 9 days after the injection using the Kodak In-Vivo Multispectral System FX (Carestream Health Molecular Imaging, New Haven, Conn.).” left out, “Tumor cells, vasculature, and W765-BG signals were precisely overlaid with anatomical X-ray images.” left out
In vivo imaging. Luciferase positive tumor cell could be detected as early as 4 days after inoculation (data not show). Different tumor growth patterns were detected at 7 days post inoculation. […]

[4] = tested on: human neuroblastoma xenograft; experiment: Whole body and dissected organ imaging in the neuroblastoma xenograft mouse model (late stage tumor, imaging window); assay type: in vivo, mice
Procedure: as §1, §2
Late stage tumor, organ image and pathological analysis. Late stage tumor mass and organ imaging were performed after the injection of additional imaging agent (FIG. 5A-H). […] Gross necropsy confirmed the necrosis in the center of this tumor. H&E stain confirmed the identification of tumor (FIG. 5I), muscle (FIG. 5J), liver (FIG. 5K), kidney (FIG. 5L), and spleen (FIG. 5M) at pathological levels.

[5] = tested on: neuroblastomas; conditions: Maris et al., 2007; cited from earlier work

Row | SMILES | uptake of agent by neuroblastoma cells (NIR signal in cells, confocal microscopy) [1] | tumor to background ratio ([2]; 24 hours after injection) | whole body location of NIR signal ([2]; 48 hours after administration (FIG. 2)) | tumor to background ratio ([2]; 48 hours after injection) | tumor to background ratio ([2]; 192 hours after injection) | tumor-to-background ratio (TBR) ([2]; NGP.Luc, early tumor growth phase (7 days post inoculation), 10 nmol W765-BG, 3 nmol RGD-Cy5.5 i.v.) | tumor-to-background ratio (TBR) ([2]; NGP.Luc, one week later than the early stage images) | whole body distribution of agent signal ([2]; NGP.Luc, one week later than the early stage images (FIG. 4P)) | time optical signals were retained in the tumor after injection ([2]; after which signal strength gradually diminished) | tumor-to-background ratio (TBR) [3] | whole body distribution of agent signal, late stage tumor ([4]; late stage tumor, after injection of additional imaging agent (FIG. 5B, 5C)) | distribution of agent in dissected organs ([4]; late stage tumor, dissected organ images (FIG. 5F, 5G)) | imaging window post injection ([4]; post injection) | uptake by normal renal structures ([4]; retroperitoneal area, whole body images) | persistence of tumor specific optical signals once absorbed ([4]; xenograft mouse model) | proportion of neuroblastomas in which the agent can be selectively concentrated [5] | uptake of agent by neuroblastoma cells (NIR signal in cells, confocal microscopy) ([1]; listed as NIR dye)
1 | CC1(C)C(/C=C/C2=C(Oc3ccc(S(=O)(=O)O)cc3)C(=C/C=C3/N(CCCCCC(=O)NCC(=O)Nc4cccc(CNC(=N)N)c4)c4ccc(S(=O)(=O)O)cc4C3(C)C)/CCC2)=[N+](CCCCS(=O)(=O)O)c2ccc(S(=O)(=O)O)cc21 [Compound W765-BG, 2-(3-(IRdye800-Gly-amino)-benzyl)guanidine] | detected inside the cells; also recorded: internalized into cells; also recorded: take up the W765-BG agent; also recorded: high uptake | 1.95 | detected in tumor region only | 1.98 | 1.52 | 1.08 | 2.90 and 2.8 | mainly in the tumor region | about 48 hours | 0.95 | non-uniformly distributed in the tumor; also recorded: located only in the tumor region | in the tumor, liver and spleen | 8 to 9 days | did not take up | longer than one week |  | 
2 | N=C(N)NCc1cccc([131I])c1 [MIBG, meta-iodobenzylguanidine] |  |  |  |  |  |  |  |  |  |  |  |  |  |  |  | more than 90% | 
3 | CC1(C)C(/C=C/C2=C(Oc3ccc(S(=O)(=O)O)cc3)C(=C/C=C3/N(CCCCS(=O)(=O)O)c4ccc(S(=O)(=O)[O-])cc4C3(C)C)/CCC2)=[N+](CCCCCC(=O)O)c2ccc(S(=O)(=O)O)cc21 [free dye, IRDye800CW carboxylate, reference compound] | almost no detectable signal |  |  |  |  |  |  |  |  |  |  |  |  |  |  |  | almost no detectable signal
